Measurements: US9458113B2 (Boehringer Ingelheim International GmbH, priority 2014, dated 2016)
In brackets after ≈: the same amount, converted by molar mass.

Columns and labels:
[1] = target: Human neutrophil elastase (Homo sapiens (Human), UniProt P08246); assay: Human Neutrophil Elastase Assay; type: biochemical; settings: substrate MeOSuc-Ala-Ala-Pro-Val-AMC 250 μM, pH 7.5
[2] = target: neutrophil elastase in zymosan-stimulated human plasma (Homo sapiens (Human), UniProt P08246); assay: Neutrophil elastase inhibitory activity in human plasma; type: biochemical; settings: human plasma from zymosan-stimulated blood
neutrophil elastase in zymosan-stimulated human plasma, sequence (P08246 30-247): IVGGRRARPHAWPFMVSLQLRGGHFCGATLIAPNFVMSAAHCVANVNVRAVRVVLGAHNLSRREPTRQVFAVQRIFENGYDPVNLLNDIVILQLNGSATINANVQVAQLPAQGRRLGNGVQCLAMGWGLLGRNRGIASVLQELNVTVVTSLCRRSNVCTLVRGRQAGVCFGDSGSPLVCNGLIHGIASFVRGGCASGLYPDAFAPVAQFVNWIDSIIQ

[3] = Metabolic stability with human liver microsomes; type: in vitro ADME; settings: pH 7.6; pooled human liver microsomes, 1 μM test compound, 37° C.; read-out: t1/2 INVITRO
[4] = Aqueous solubility (High Throughput Method); type: physicochemical; settings: McIlvaine buffer pH 6.8 with 2.5% DMSO, kinetic from dmso stock, McIlvaine buffer pH 6.8, 2.5% DMSO, 24 h shaking
Protocol: Assay for Determination of Aqueous Solubility (“High Throughput Method”)
Starting from a […] DMSO stock solution, aliquots are diluted with acetonitrile/water (1/1) and McIlvaine buffer pH 6.8, respectively. After 24 h of shaking, the solutions or suspensions are filtered and analyzed by LC-UV. The amount dissolved in buffer is compared to the amount dissolved in the acetonitrile/water (1/1) solution. Solubility is measured from 0.001 to 0.125 mg/ml at a DMSO concentration of 2.5%. If more than 90% of the compound is dissolved in buffer, the value is marked with “>”.

[5] = Aqueous solubility (Shaked Flask Method); type: physicochemical; settings: aqueous buffer, thermodynamic from solid, pH 6.8
Protocol: Assay for Determination of Aqueous Solubility (“Shaked Flask Method”)
Saturated solutions are prepared in well plates by adding an appropriate volume of selected aqueous media (typically in the range of 0.25-1.5 ml) into each well which contains a known quantity of solid drug substance (typically in the range 0.5-5.0 mg). The wells are shaken or stirred for a predefined time period (typically in a range of 2-24 h) and then filtered using appropriate filter membranes (typically PTFE-filters with 0.45 μm pore size). Filter absorption is avoided by discarding the first few drops of filtrate. The amount of dissolved drug substance is determined by UV spectroscopy or by HPLC with UV-detection. In addition, the pH of the aqueous saturated solution is measured using a glass-electrode pH meter.

[6] = test system: human hepatocytes; assay: Metabolic stability with human hepatocytes; type: in vitro ADME; settings: 1 μM test compound, well stirred model
Protocol: Assay for the Determination of Metabolic Stability with Human Hepatocytes
The metabolic degradation of the test compound is assayed in a human hepatocyte suspension. Human hepatocytes (typically cryopreserved) are incubated in an appropriate buffer system (e.g. Dulbecco's modified eagle medium plus 3.5 μg glucagon/500 mL, 2.5 mg insulin/500 mL and 3.75 mg/500 mL hydrocortison) containing 5% species serum. Following a (typically) […] preincubation in an incubator (37° C., 10% CO2), 5 μl of test compound solution (80 μM; from […] stock solution in DMSO diluted 1:25 with medium) are added into 395 μl hepatocyte suspension (cell density in the range 0.25-5*10^6 cells/mL, typically 1*10^6 cells/mL; final concentration of test compound 1 μM, final DMSO concentration 0.05%). The cells are incubated for six hours (incubator, orbital shaker) and samples (25 μl) are taken at 0, 0.5, 1, 2, 4 and 6 hours. Samples are transferred into acetonitrile and pelleted by centrifugation (5 min) The supernatant is transferred to a new 96-deepwell plate, evaporated under nitrogen and resuspended. The decline of parent compound is analyzed by LC-MS/MS.
The intrinsic clearance CL_[…] is calculated as follows: CL_[…]=Dose/AUC=(C0/CD)/(AUD+clast/k)*1,000/60
(C0: initial concentration in the incubation [μM], CD: cell density of vital cells [10^6 cells/mL], AUD: area under the data [μM*h], clast: concentration of last data point [μM], k: slope of the regression line for parent decline [h^−1])
The calculated in vitro hepatic intrinsic clearance Qh can be scaled up to the intrinsic in vivo hepatic clearance and used to predict hepatic in vivo blood clearance (CL) by the use of a liver model (well stirred model): CL_[…]_INVIVO [ml/min/kg]=(CL_[…] [μL/min/10^6 cells]*hepatocellularity [10^6 cells/g liver]*liver factor [g/kg bodyweight])/1,000 CL [ml/min/kg]=CL_[…]_INVIVO [ml/min/kg]*hepatic blood flow [ml/min/kg]/(CL_[…]_INVIVO [ml/min/kg]+hepatic blood flow [ml/min/kg]) Qh [%]=CL [ml/min/kg]/hepatic blood flow [ml/min/kg])
(Hepatocellularity, human: 120*10^6 cells/g liver; liver factor, human: 25.7 g/kg bodyweight; blood flow, human: 21 ml/(min*kg))
The calculated in-vitro hepatic intrinsic clearance values of selected compounds in the metabolic stability assay with human hepatocytes described above are listed in Table 15.

[7] = Drug transport across human Caco-2 cells; type: in vitro ADME; settings: apparent permeability coefficient, Caco-2 monolayers, pH 7.2, 37° C.; for Papp A→B at 10 µM: apical-to-basal (absorptive), read-out: PEAB; for Papp B→A at 10 µM: basal-to-apical (secretory), read-out: PEBA
Text: Assay for Determination of Drug Transport Across Human Caco-2 Cells
The assay provides information on the potential of a compound to pass the cell membrane, on the extent of oral absorption as well as on whether the compound is actively transported by uptake and/or efflux transporters. For the measurement of permeability across polarized, confluent human cancer colon carcinoma cells 2 (Caco-2) cell monolayers grown on permeable filter supports are used as the in vitro absorption model.
Apparent permeability coefficients (PE) of the compounds across the Caco-2 monolayers are measured (pH 7.2, 37° C.) in apical-to-basal (AB) (absorptive) and basal-to-apical (BA) (secretory) transport direction. AB permeability (PEAB) represents drug absorption from the intestine into the blood and BA permeability (PEBA) drug secretion from the blood back into the intestine via both passive permeability as well as active transport mechanisms mediated by efflux and uptake transporters that are expressed on the Caco-2 cells. The compounds are assigned to permeability/absorption classes by comparison of the AB permeabilities with the AB permeabilities of reference compounds with known in vitro permeability and oral absorption in the human. Identical or similar permeabilities in both transport directions indicate passive permeation, vectorial permeability points to additional active transport mechanisms. […] Active transport is concentration-dependently saturable.
Caco-2 cells (1-2*10^5 cells/cm^2 area) are seeded on filter inserts (Costar transwell polycarbonate or PET filters, 0.4 μm pore size) and cultured (DMEM) for 10 to 25 days. Compounds are dissolved in appropriate solvent (like DMSO, […] stock solutions). Stock solutions are diluted with HTP-4 buffer (128.13 mM NaCl, 5.36 mM KCl, 1 mM MgSO4, 1.8 mM CaCl2, 4.17 mM NaHCO3, 1.19 mM Na2HPO4x7H2O, 0.41 mM NaH2PO4xH2O, 15 mM HEPES, 20 mM glucose, pH 7.2) to prepare the transport solutions (typically 10 μM compound, final DMSO<=0.5%). The transport solution (TL) is applied to the apical or basolateral donor side for measuring A-B or B-A permeability (3 filter replicates), respectively. The receiver side contains HTP-4 buffer supplemented with 2% BSA. Samples are collected at the start and end of experiment from the donor and at various time intervals for up to 2 hours also from the receiver side for concentration measurement by LC-MS/MS or scintillation counting. Sampled receiver volumes are replaced with fresh receiver solution.
The apparent permeability coefficients (PEAB and PEBA) of selected compounds in the Caco-2 drug transport assay described above are listed in Table 16.

Human neutrophil elastase, sequence (P08246 30-247): as above

Row | IC50 [1] | EC50 [2] | half-life at 1 μM [3] | solubility at 24 h [4] | solubility [5] | Qh [6] | Papp A→B at 10 µM [7] | Papp B→A at 10 µM [7] | Compound
1 | < 1 nM | 1 nM | > 2.17 h | 72 µg/mL (≈ 135 µM) | > 10 µg/mL | – | – | – | CN1C(=O)N(c2cccc(C(F)(F)F)c2)C2=C(C(=O)CCC2)[C@H]1c1ccc(C#N)cc1-c1ccn(C)c(=O)c1 [Example 20.b, 4-[3-Methyl-2,5-dioxo-1-(3-trifluoromethyl-phenyl)-1,2,3,4,5,6,7,8-octahydro-quinazolin-4-yl]-3-(1-methyl-2-oxo-1,2-dihydro-pyridin-4-yl)-benzonitrile]
2 | 1.3 nM | 2 nM | > 2.17 h | 50 µg/mL (≈ 102 µM) | > 10 µg/mL | 23% | 52 ×10⁻⁶ cm/s | 67 ×10⁻⁶ cm/s | CN1C(=O)N(c2cccc(C(F)(F)F)c2)C2=C(C(=O)CC2)C1c1ccc(C#N)cc1-c1cncnc1 (stereo not drawn) [Example 21]
3 | 2.2 nM | 2 nM | > 2.17 h | – | – | 16% | 49 ×10⁻⁶ cm/s | 72 ×10⁻⁶ cm/s | Cc1nnc(-c2cc(C#N)ccc2C2C3=C(CCC3=O)N(c3cccc(C(F)(F)F)c3)C(=O)N2C)o1 (stereo not drawn) [Example 13.1, 4-[3-Methyl-2,5-dioxo-1-(3-trifluoromethyl-phenyl)-2,3,4,5,6,7-hexahydro-1H-cyclopentapyrimidin-4-yl]-3-(5-methyl-[1,3,4]oxadiazol-2-yl)-benzonitrile]
4 | 1.9 nM | 7 nM | > 2.17 h | – | > 10 µg/mL | 20% | 16 ×10⁻⁶ cm/s | 96 ×10⁻⁶ cm/s | CN1C(=O)N(c2cccc(C(F)(F)F)c2)C2=C(C(=O)CC2)[C@H]1c1ccc(C#N)cc1CNC1CCOCC1 [Example 25, 4-[(R)-3-Methyl-2,5-dioxo-1-(3-trifluoromethyl-phenyl)-2,3,4,5,6,7-hexahydro-1H-cyclopentapyrimidin-4-yl]-3-[(tetrahydro-pyran-4-ylamino)-methyl]-benzonitrile]
5 | – | – | – | – | – | 5% | 6.2 ×10⁻⁶ cm/s | 95 ×10⁻⁶ cm/s | CN1C(=O)N(c2cccc(C(F)(F)F)c2)C2=C(C(=O)CCC2)C1c1ccc(C#N)cc1-c1ccn(C)c(=O)c1 (single isomer, unassigned) [Example 20.b, 4-[3-Methyl-2,5-dioxo-1-(3-trifluoromethyl-phenyl)-1,2,3,4,5,6,7,8-octahydro-quinazolin-4-yl]-3-(1-methyl-2-oxo-1,2-dihydro-pyridin-4-yl)-benzonitrile]
6 | 1.8 nM | 2 nM | > 2.17 h | – | – | 9% | 14 ×10⁻⁶ cm/s | 78 ×10⁻⁶ cm/s | CNC(=O)c1cc(C#N)ccc1[C@@H]1C2=C(CCC2=O)N(c2cccc(C(F)(F)F)c2)C(=O)N1C [Example 2.1]
7 | < 1 nM | 2 nM | 2 h | – | – | 24% | 61 ×10⁻⁶ cm/s | 76 ×10⁻⁶ cm/s | CN1C(=O)N(c2cccc(C(F)(F)F)c2)C2=C(C(=O)CC2)C1c1ccc(C#N)cc1-c1cnn(C)c1 (stereo not drawn) [Example 11.2]
8 | 1.2 nM | 4 nM | > 2.17 h | – | – | – | 3.5 ×10⁻⁶ cm/s | 57 ×10⁻⁶ cm/s | CN1C(=O)N(c2cccc(C(F)(F)F)c2)C2=C(C(=O)CCC2)C1c1ccc(C#N)cc1-c1ccn(C)c(=O)c1 (stereo not drawn) [Example 15.8, 4-[3-Methyl-2,5-dioxo-1-(3-trifluoromethyl-phenyl)-1,2,3,4,5,6,7,8-octahydro-quinazolin-4-yl]-3-(1-methyl-2-oxo-1,2-dihydro-pyridin-4-yl)-benzonitrile]
9 | 3.8 nM | 6 nM | > 2.17 h | 83 µg/mL (≈ 170 µM) | > 10 µg/mL | 12% | 52 ×10⁻⁶ cm/s | 77 ×10⁻⁶ cm/s | CN1C(=O)N(c2cccc(C(F)(F)F)c2)C2=C(C(=O)CC2)C1c1ccc(C#N)cc1-c1ccncn1 (stereo not drawn) [Example 22, 4-[3-Methyl-2,5-dioxo-1-(3-trifluoromethyl-phenyl)-2,3,4,5,6,7-hexahydro-1H-cyclopentapyrimidin-4-yl]-3-pyrimidin-4-yl-benzonitrile]
